The values below come from article PMC9367672, “In vitro differences in toddalolactone metabolism in various species and its effect on cytochrome P450 expression” (Pharmaceutical Biology, 2022).

Data set [1] concerns the target CYP3A5 (Homo sapiens, UniProt P20815). On the set-up: purchased Corning Life Sciences (Corning, MA); host or cells: Saccharomyces cerevisiae; method as in Wright et al. [2020]. Particulars: at 1.8 μM; ref Wright et al. [2020]; cited from earlier work.
The subject of data set [2] is HLMs. Put plainly: Chemical inhibition assay: formation of P4 from toddalolactone in HLMs. Particulars: HLMs with toddalolactone and NADPH-generating system; ketoconazole 1 μM, clobetasol propionate 1.8 μM, quinidine 10 μM; vs no inhibitor. The class given is in vitro ADME, human. How it is done:
All incubation assays were completed in triplicate. The data are presented as mean ± standard deviation (SD).
Specific inhibitors for P450 isoforms were used to explore the contribution of CYP isoforms to the biotransformation of toddalolactone. […] In brief, toddalolactone was incubated with HLMs and an NADPH-generating system in the presence and absence (control) of the aforementioned specific inhibitors.

Substrate in data set [3]: COc1cc2oc(=O)ccc2c(OC)c1C[C@@H](O)C(C)(C)O
The data set is described as follows: cells, lysate or membranes named. Particulars: P4 formation, toddalolactone 1–200 μM, pH 7.4, 37.0 °C.

For `CCC(=O)O[C@]1(C(=O)CCl)[C@@H](C)C[C@H]2[C@@H]3CCC4=CC(=O)C=C[C@]4(C)[C@@]3(F)[C@@H](O)C[C@@]21C` [clobetasol propionate], the “inhibition of CYP3A5” value in data set [1] is 90%. Also, in data set [2], the “inhibition of formation of P4” value is roughly 40%.

B1: CYP1A1 (Homo sapiens) (protein)
chain: MLFPISMSATEFLLASVIFCLVFWVIRASRPQVPKGLKNPPGPWGWPLIGHMLTLGKNPHLALSRMSQQYGDVLQIRIGSTPVVVLSGLDTIRQALVRQGDDFKGRPDLYTFTLISNGQSMSFSPDSGPVWAARRRLAQNGLKSFSIASDPASSTSCYLEEHVSKEAEVLISTLQELMAGPGHFNPYRYVVVSVTNVICAICFGRRYDHNHQELLSLVNLNNNFGEVVGSGNPADFIPILRYLPNPSLNAFKDLNEKFYSFMQKMVKEHYKTFEKGHIRDITDSLIEHCQEKQLDENANVQLSDEKIINIVLDLFGAGFDTVTTAISWSLMYLVMNPRVQRKIQEELDTVIGRSRRPRLSDRSHLPYMEAFILETFRHSSFVPFTIPHSTTRDTSLKGFYIPKGRCVFVNQWQINHDQKLWVNPSEFLPERFLTPDGAIDKVLSEKVIIFGMGKRKCIGETIARWEVFLFLAILLQRVEFSVPLGVKVDMTPIYGLTMKHACCEHFQMQLRS
Regarding B1, the kcat in data set [3] (other: recombinant CYP1A1 (15 nM)) is recorded as 0.76 ± 0.03 pmol/min/nmol CYP.

B2: CYP3A5 (Homo sapiens) (protein)
chain: MDLIPNLAVETWLLLAVSLVLLYLYGTRTHGLFKRLGIPGPTPLPLLGNVLSYRQGLWKFDTECYKKYGKMWGTYEGQLPVLAITDPDVIRTVLVKECYSVFTNRRSLGPVGFMKSAISLAEDEEWKRIRSLLSPTFTSGKLKEMFPIIAQYGDVLVRNLRREAEKGKPVTLKDIFGAYSMDVITGTSFGVNIDSLNNPQDPFVESTKKFLKFGFLDPLFLSIILFPFLTPVFEALNVSLFPKDTINFLSKSVNRMKKSRLNDKQKHRLDFLQLMIDSQNSKETESHKALSDLELAAQSIIFIFAGYETTSSVLSFTLYELATHPDVQQKLQKEIDAVLPNKAPPTYDAVVQMEYLDMVVNETLRLFPVAIRLERTCKKDVEINGVFIPKGSMVVIPTYALHHDPKYWTEPEEFRPERFSKKKDSIDPYIYTPFGTGPRNCIGMRFALMNMKLALIRVLQNFSFKPCKETQIPLKLDTQGLLQPEKPIVLKVDSRDGTLSGE
With B2, the kcat in data set [3] (other: recombinant CYP3A5 (15 nM)) was determined as 0.68 ± 0.04 pmol/min/nmol CYP.
